Here are results for 17 compounds from patent US11267814B2, “Compounds for bone growth” (OsteoQC Inc., priority 2013, dated 2022).

Structures can show the parent of a compound that is named as a salt.

Series [1] addresses T1, sclerostin (Homo sapiens, UniProt Q9BQB4).
T1 construct: host or cells: human embryonic cells (reporter cells)
T1 sequence (Q9BQB4 24-213): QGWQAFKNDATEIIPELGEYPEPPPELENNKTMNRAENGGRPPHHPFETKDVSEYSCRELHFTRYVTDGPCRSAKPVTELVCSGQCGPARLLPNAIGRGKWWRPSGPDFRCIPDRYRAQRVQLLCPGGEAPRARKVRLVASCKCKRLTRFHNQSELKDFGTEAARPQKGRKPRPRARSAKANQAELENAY
Briefly: Modulation of sclerostin/Wnt activity (sclerostin inhibition assay): restoring Wnt3a signaling in the presence of sclerostin. The note with it: IC100 class; Wnt3a signaling in human embryonic cells in presence of sclerostin. In kind it is cell-based.

In series [2] the test system is MC3T3-E1 (mouse calvarial) osteoblast cells. Briefly: Rescue of sclerostin inhibition of mineralization (total calcium). The class given is cell-based. The conditions noted are these: Mus musculus, MC3T3-E1; IC100 class; calcium concentration, MC3T3 osteoblast cells treated with sclerostin; read-out: Sclerostin Inhibition of Mineralization; improvement over sclerostin alone. Here is the method:
Mineralization (crystalline calcium phosphate formation) represents an in vitro model of bone formation. […] Following the protocol described in Li et al., Compounds were assayed for their ability to rescue the inhibition of mineralization by sclerostin in MC3T3 osteoblast cells.

The target of series [3] is T2, hERG potassium channel (Homo sapiens, UniProt Q12809).
T2 construct: expressed in transfected cells; host or cells: CHO-K1
T2 sequence (Q12809 whole entry): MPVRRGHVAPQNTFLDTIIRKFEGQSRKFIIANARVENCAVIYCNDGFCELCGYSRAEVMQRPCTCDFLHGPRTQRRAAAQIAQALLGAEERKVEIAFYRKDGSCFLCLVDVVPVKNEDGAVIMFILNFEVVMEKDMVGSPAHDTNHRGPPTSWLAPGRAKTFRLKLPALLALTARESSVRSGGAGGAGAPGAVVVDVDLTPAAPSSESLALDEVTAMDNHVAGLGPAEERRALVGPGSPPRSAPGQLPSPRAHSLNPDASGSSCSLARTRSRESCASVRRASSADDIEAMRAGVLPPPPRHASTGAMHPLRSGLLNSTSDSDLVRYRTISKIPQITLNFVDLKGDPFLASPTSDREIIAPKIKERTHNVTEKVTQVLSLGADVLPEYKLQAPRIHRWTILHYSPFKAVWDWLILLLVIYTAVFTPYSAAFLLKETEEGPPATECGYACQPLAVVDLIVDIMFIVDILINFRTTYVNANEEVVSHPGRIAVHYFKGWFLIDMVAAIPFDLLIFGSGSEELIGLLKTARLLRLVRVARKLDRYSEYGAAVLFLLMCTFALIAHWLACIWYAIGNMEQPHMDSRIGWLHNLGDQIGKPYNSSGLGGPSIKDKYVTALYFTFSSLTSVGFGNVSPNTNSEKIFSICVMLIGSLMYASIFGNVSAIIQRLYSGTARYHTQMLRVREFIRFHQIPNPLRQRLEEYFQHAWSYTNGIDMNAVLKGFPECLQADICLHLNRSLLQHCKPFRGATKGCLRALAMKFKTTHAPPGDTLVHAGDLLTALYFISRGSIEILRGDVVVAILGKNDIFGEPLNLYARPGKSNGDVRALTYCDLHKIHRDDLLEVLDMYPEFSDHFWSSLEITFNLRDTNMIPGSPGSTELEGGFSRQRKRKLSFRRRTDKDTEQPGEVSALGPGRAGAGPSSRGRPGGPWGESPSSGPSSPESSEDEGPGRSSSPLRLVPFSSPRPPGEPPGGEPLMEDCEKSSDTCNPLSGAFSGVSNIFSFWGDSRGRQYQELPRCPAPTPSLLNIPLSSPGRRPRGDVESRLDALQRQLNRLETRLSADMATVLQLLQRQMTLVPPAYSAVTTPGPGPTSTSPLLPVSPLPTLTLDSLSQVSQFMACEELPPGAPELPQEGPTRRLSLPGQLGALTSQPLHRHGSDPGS
Briefly: hERG automated patch clamp assay. In kind it is cell-based. The conditions noted are these: inhibition of hERG tail current, 5 minutes at room temperature, CHO-K1 cells stably expressing hERG. The protocol: One major type of cardiovascular toxicity associated with pharmaceutical drugs is caused by drug effects on cardiac ion channels like hERG. Drug-induced inhibition of hERG results in a prolonged QT interval, which can lead to a life-threatening ventricular arrhythmia. Therefore, the inhibitory effect of compounds described in Examples 1-46 on the hERG potassium channel was evaluated using an automated patch clamp assay as described in Mathes, C. (2006) Expert Opin. Ther. Targets, 10 (2): 319-327. CHO-K1 cells stably expressing hERG channels were used.

The test system of series [4] is MC3T3 osteoblast cells. The series can be described thus: Osteocalcin (OCN) secretion, bone formation marker, ELISA. The class given is cell-based, mouse. The conditions noted are these: Mus musculus; IC100 class; OCN secreted from MC3T3 osteoblast cells treated with sclerostin. The protocol:
Bone formation can also be assayed in vitro or in vivo using a serum marker for bone formation, osteocalcin (OCN), available from Biomedical Tecnhnologies, Inc. (Stoughton, Mass.). Following the manufacturer's protocol for the mouse osteocalcin EIA kit (described at the website www.btiinc.com/page/cata2.html#mouse_osteocalcin), bone formation in MC3T3 osteoblast cells was assayed by measuring the concentration of OCN.

As for `COc1ccc2c3ccnc(C)c3n(CC(C)N3CCOCC3)c2c1` (centres unmarked) [Example 8, 4-(1-(7-methoxy-1-methyl-9H-pyrido[3,4-b]indol-9-yl)propan-2-yl) morpholine], the “Sclerostin Inhibition Assay; improvement over sclerostin alone.” value in series [1] is “++ (++ indicates an IC100 < 10 μM)”. Besides, the IC100 in series [2] and in series [4] was less than 10 µM in each case. Besides, in series [3], the “hERG (1uM)” value is “+ (+ indicates less than 50% inhibition of hERG tail current)”.
For the compound `COc1ccc2c3ccnc(C)c3n(CC(C)N3CCCCC3)c2c1` (centres unmarked) [Example 9, 7-methoxy-1-methyl-9-(2-(piperidin-1-yl)propyl)-9H-pyrido[3,4-b]indole], the “Sclerostin Inhibition Assay; improvement over sclerostin alone.” value in series [1] is given as “++ (++ indicates an IC100 < 10 μM)”. In addition, the IC100 in series [2] and in series [4] was less than 10 µM in each case. Also, the “hERG (1uM)” value in series [3] is given as “+ (+ indicates less than 50% inhibition of hERG tail current)”.
In the case of `COc1ccc2c3ccnc(C)c3n(CCN3CCCCC3)c2c1` [Example 10, 7-methoxy-1-methyl-9-(2-(piperidin-1-yl)ethyl)-9H-pyrido[3,4-b]indole], in series [1], the “Sclerostin Inhibition Assay; improvement over sclerostin alone.” value is on record as “++ (++ indicates an IC100 < 10 μM)”. Besides, the IC100 in series [2] and in series [4] was less than 10 µM each time. Besides, the “hERG (1uM)” value in series [3] was “+ (+ indicates less than 50% inhibition of hERG tail current)”.
With `COc1ccc2c3ccnc(C)c3n(CCCN3CCOCC3)c2c1` [Example 11, 4-(3-(7-methoxy-1-methyl-9H-pyrido[3,4-b]indol-9-yl)propyl)morpholine formate], the “Sclerostin Inhibition Assay; improvement over sclerostin alone.” value in series [1] was “++ (++ indicates an IC100 < 10 μM)”. Also, the IC100 in series [2] and in series [4] was less than 10 µM each time. In addition, the “hERG (1uM)” value in series [3] was “+ (+ indicates less than 50% inhibition of hERG tail current)”.
With `COc1ccc2c3ccnc(C)c3n(CCN3CCOCC3)c2c1` [Example 12, 4-(2-(7-methoxy-1-methyl-9H-pyrido[3,4-b]indol-9-yl)ethyl)morpholine], the “Sclerostin Inhibition Assay; improvement over sclerostin alone.” value in series [1] is listed as “++ (++ indicates an IC100 < 10 μM)”. For the same compound, the IC100 in series [2] and in series [4] was less than 10 µM each time. Moreover, the “hERG (1uM)” value in series [3] is given as “+ (+ indicates less than 50% inhibition of hERG tail current)”.
`Cc1nccc2c3ccc(O)cc3n(CCN3CCOCC3)c12` [Example 13, 1-methyl-9-(2-morpholinoethyl)-9H-pyrido[3,4-b]indol-7-ol]: in series [1], the “Sclerostin Inhibition Assay; improvement over sclerostin alone.” value is recorded as “++ (++ indicates an IC100 < 10 μM)”. Also, the IC100 in series [2] and in series [4] was less than 10 µM in each case. For the same compound, the “hERG (1uM)” value in series [3] is “+ (+ indicates less than 50% inhibition of hERG tail current)”.
In the case of `COc1ccc2c3ccnc(C)c3n(CCCN3CCN(C(=O)OC(C)(C)C)CC3)c2c1` [Example 15, t-butyl 4-(3-(7-methoxy-1-methyl-9H-pyrido[3,4-b]indol-9-yl)propyl) piperazine-1-carboxylate], the “Sclerostin Inhibition Assay; improvement over sclerostin alone.” value in series [1] is given as “++ (++ indicates an IC100 < 10 μM)”. The IC100 in series [2] and in series [4] was less than 10 µM throughout. Further, the “hERG (1uM)” value in series [3] was “++ (++ indicates more than 50% inhibition of hERG tail current)”.
For `COc1ccc2c3ccnc(C)c3n(CCCN3CCNCC3)c2c1` [Example 17, 7-methoxy-1-methyl-9-(3-(piperazin-1-yl)propyl)-9H-pyrido[3,4-b]indole trifluoroacetate], the “Sclerostin Inhibition Assay; improvement over sclerostin alone.” value in series [1] is on record as “++ (++ indicates an IC100 < 10 μM)”. Besides, the IC100 in series [2] and in series [4] was less than 10 µM throughout. Further, in series [3], the “hERG (1uM)” value is “+ (+ indicates less than 50% inhibition of hERG tail current)”.
Consider `COc1ccc2c3ccnc(C)c3n(CCN(C)CCO)c2c1` [Example 18, 2-((2-(7-methoxy-1-methyl-9H-pyrido[3,4-b]indol-9-yl)ethyl)(methyl)amino)ethanol], for which, in series [1], the “Sclerostin Inhibition Assay; improvement over sclerostin alone.” value was “++ (++ indicates an IC100 < 10 μM)”. Besides, the IC100 in series [2] and in series [4] was less than 10 µM in each case. In series [3], the “hERG (1uM)” value is “+ (+ indicates less than 50% inhibition of hERG tail current)”.
On to `COc1ccc2c(c1)[nH]c1c(C)[n+]([O-])ccc12` [Example 21, 7-methoxy-1-methyl-9H-pyrido[3,4-b]indole pyridine N-oxide], for which the “Sclerostin Inhibition Assay; improvement over sclerostin alone.” value in series [1] was “+ (+ indicates an IC100 > 10 μM)”. The IC100 in series [2] and in series [4] was more than 10 µM each time. In addition, in series [3], the “hERG (1uM)” value is on record as “+ (+ indicates less than 50% inhibition of hERG tail current)”.
`COc1ccc2c(c1)[nH]c1c(C(F)(F)F)nccc12` [Example 22, 7-methoxy-1-(trifluoromethyl)-9H-pyrido[3,4-b]indole]: the “Sclerostin Inhibition Assay; improvement over sclerostin alone.” value in series [1] is “++ (++ indicates an IC100 < 10 μM)”. Further, the IC100 in series [2] and in series [4] was less than 10 µM in each case. For the same compound, the “hERG (1uM)” value in series [3] was “+ (+ indicates less than 50% inhibition of hERG tail current)”.
With `COc1ccc2c3ccnc(C(F)(F)F)c3n(CCN3CCOCC3)c2c1` [Example 25, 4-(2-(7-methoxy-1-(trifluoromethyl)-9H-pyrido[3,4-b]indol-9-yl)ethyl) morpholine], the “Sclerostin Inhibition Assay; improvement over sclerostin alone.” value in series [1] is recorded as “++ (++ indicates an IC100 < 10 μM)”. For the same compound, the IC100 in series [2] and in series [4] was less than 10 µM throughout. In series [3], the “hERG (1uM)” value was “+ (+ indicates less than 50% inhibition of hERG tail current)”.
As to `COc1ccc2c3ccnc(C(F)(F)F)c3n(CC(C)N(C)C)c2c1` (centres unmarked) [Example 27, 1-(7-methoxy-1-(trifluoromethyl)-9H-pyrido[3,4-b]indol-9-yl)-N,N-dimethylpropan-2-amine], in series [1], the “Sclerostin Inhibition Assay; improvement over sclerostin alone.” value is reported as “++ (++ indicates an IC100 < 10 μM)”. In addition, the IC100 in series [2] and in series [4] was less than 10 µM each time. In addition, the “hERG (1uM)” value in series [3] is reported as “+ (+ indicates less than 50% inhibition of hERG tail current)”.
With `CC1(C)COCCN1CCn1c2cc(O)ccc2c2ccnc(C(F)(F)F)c21` [Example 32, 9-(2-(3,3-dimethylmorpholino)ethyl)-1-(trifluoromethyl)-9H-pyrido[3,4-b]indol-7-ol], the “Sclerostin Inhibition Assay; improvement over sclerostin alone.” value in series [1] is listed as “++ (++ indicates an IC100 < 10 μM)”. Also, the IC100 in series [2] and in series [4] was less than 10 µM throughout. In addition, the “hERG (1uM)” value in series [3] was “+ (+ indicates less than 50% inhibition of hERG tail current)”.
Turning to `COc1ccc2c3ccnc(C(F)(F)F)c3n(CCN(CCO)CCO)c2c1` [Example 35, 2,2′-((2-(7-methoxy-1-(trifluoromethyl)-9H-pyrido[3,4-b]indol-9-yl)ethyl)azanediyl)diethanol], the “Sclerostin Inhibition Assay; improvement over sclerostin alone.” value in series [1] is given as “++ (++ indicates an IC100 < 10 μM)”. Besides, the IC100 in series [2] and in series [4] was less than 10 µM in each case. In addition, the “hERG (1uM)” value in series [3] is listed as “+ (+ indicates less than 50% inhibition of hERG tail current)”.
Take `COc1ccc2c(c1)[nH]c1c(C)ccnc12` [Example 37, 7-methoxy-4-methyl-5H-pyrido[3,2-b]indole]: in series [1], the “Sclerostin Inhibition Assay; improvement over sclerostin alone.” value is “++ (++ indicates an IC100 < 10 μM)”. The IC100 in series [2] and in series [4] was less than 10 µM throughout. Also, the “hERG (1uM)” value in series [3] is recorded as “+ (+ indicates less than 50% inhibition of hERG tail current)”.
As to `COc1ccc2c(c1)[nH]c1c(C)nc(OC)cc12` [Example 40, 3,7-dimethoxy-1-methyl-9H-pyrido[3,4-b]indole], in series [1], the “Sclerostin Inhibition Assay; improvement over sclerostin alone.” value is listed as “++ (++ indicates an IC100 < 10 μM)”. Besides, the IC100 in series [2] and in series [4] was less than 10 µM in each case. In addition, in series [3], the “hERG (1uM)” value was “+ (+ indicates less than 50% inhibition of hERG tail current)”.
